Results: US20260085073A1, “PYRAZOLYLCARBOXAMIDE COMPOUNDS AND THEIR USE IN THERAPY” (Hotspot Therapeutics, Inc., priority 2022, published 2026)

target: T1, MALT1 (Homo sapiens, UniProt Q9UDY8); assay: MALT1 inhibition assay (MALT-1 Fluorogenic Peptide Cleavage Assay, Ac-LRSR-AMC substrate); assay type: biochemical; settings: Avi-tagged FL MALT-1, 30 min pre-incubation, 90 min reaction at room temperature, fluorescence intensity
T1 construct: Avi-tagged FL MALT-1 (Pharmaron, stored at −70° C.); Avi-tag
T1 sequence (Q9UDY8 1-824): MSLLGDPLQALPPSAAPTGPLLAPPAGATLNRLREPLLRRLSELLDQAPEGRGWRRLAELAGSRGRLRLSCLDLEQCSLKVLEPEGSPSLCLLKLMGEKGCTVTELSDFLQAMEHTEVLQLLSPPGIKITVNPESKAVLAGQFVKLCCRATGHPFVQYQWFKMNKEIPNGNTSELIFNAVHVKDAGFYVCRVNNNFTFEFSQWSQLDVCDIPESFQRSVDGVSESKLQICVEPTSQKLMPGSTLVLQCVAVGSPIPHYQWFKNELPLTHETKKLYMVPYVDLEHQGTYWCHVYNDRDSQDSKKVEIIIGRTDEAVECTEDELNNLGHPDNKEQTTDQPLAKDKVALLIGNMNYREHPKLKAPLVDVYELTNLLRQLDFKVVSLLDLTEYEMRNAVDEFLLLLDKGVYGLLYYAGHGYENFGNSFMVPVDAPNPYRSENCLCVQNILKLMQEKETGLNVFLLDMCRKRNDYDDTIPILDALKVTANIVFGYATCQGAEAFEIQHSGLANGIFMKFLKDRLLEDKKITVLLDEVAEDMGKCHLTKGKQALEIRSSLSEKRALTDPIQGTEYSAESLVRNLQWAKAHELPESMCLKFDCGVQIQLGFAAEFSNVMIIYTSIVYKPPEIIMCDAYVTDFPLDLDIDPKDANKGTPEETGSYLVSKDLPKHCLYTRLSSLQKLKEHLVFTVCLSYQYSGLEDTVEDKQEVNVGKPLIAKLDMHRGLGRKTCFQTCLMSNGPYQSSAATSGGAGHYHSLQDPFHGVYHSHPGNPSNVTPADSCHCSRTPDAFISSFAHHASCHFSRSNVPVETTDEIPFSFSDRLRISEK
In short: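 Full-length Avi-tagged MALT1 pre-incubated 30 min at room temperature with compounds (2% DMSO final) in HEPES pH 6.89, sodium citrate, TCEP, EDTA, CHAPS buffer. Ac-LRSR-AMC added from 50 µM (Km) or […] working stocks; 90 min at room temperature, AMC fluorescence (ex 342/em 441 nm); IC50 from % inhibition curves.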

Structure (SMILES) | IC50
Cn1nc(-c2ccc(F)c3ncsc23)c(C(F)(F)F)c1C(=O)Nc1ccnc(C(F)(F)F)c1 [Compound I-234] | > 10000 nM
Cn1nc(-c2cccc3ncsc23)c(C(F)(F)F)c1C(=O)Nc1ccc(C(=O)N2CC(O)C2)c(Cl)c1 [Compound I-235] | 500 to 2500 nM
Cn1nc(-c2cccc3cnoc23)c(C(F)(F)F)c1C(=O)Nc1ccnc(C(F)(F)F)c1 [Compound I-236] | 2500 to 10000 nM
Cn1nc(-c2nccc3ccsc23)c(C(F)(F)F)c1C(=O)Nc1ccnc(C(F)(F)F)c1 [Compound I-237] | 500 to 2500 nM
Cc1ccc(-c2nn(C)c(C(=O)Nc3ccnc(C(F)(F)F)c3)c2C(F)(F)F)n2ccnc12 [Compound I-238] | 2500 to 10000 nM
Cn1nc(-c2n[nH]c3ccncc23)c(C(F)(F)F)c1C(=O)Nc1ccnc(C(F)(F)F)c1 [Compound I-239] | > 10000 nM
Cn1nc(-c2cccc3ncccc23)c(C(F)(F)F)c1C(=O)Nc1ccc(C(=O)N2CC(O)C2)c(Cl)c1 [Compound I-240] | 2500 to 10000 nM
Cn1nc(-c2cccc3nccn23)c(C(F)(F)F)c1C(=O)Nc1ccc(C(=O)N2CC(O)C2)c(Cl)c1 [Compound I-241, N-(3-Chloro-4-(3-hydroxyazetidine-1-carbonyl)phenyl)-3-(imidazo[1,2-a]pyridin-5-yl)-1-methyl-4-(trifluoromethyl)-1H-pyrazole-5-carboxamide] | 2500 to 10000 nM
Cn1nc(-c2n[nH]c3ncccc23)c(C(F)(F)F)c1C(=O)Nc1ccnc(C(F)(F)F)c1 [Compound I-242] | 2500 to 10000 nM
Cn1nc(-c2cccc3[nH]c(=O)sc23)c(C(F)(F)F)c1C(=O)Nc1ccnc(C(F)(F)F)c1 [Compound I-243] | 500 to 2500 nM
Cn1nc(-c2nsc3ccccc23)c(C(F)(F)F)c1C(=O)Nc1ccnc(C(F)(F)F)c1 [Compound I-244] | 500 to 2500 nM
Cn1nc(-c2cc(Cl)cc3nccn23)c(C(F)(F)F)c1C(=O)Nc1ccnc(C(F)(F)F)c1 [Compound I-245] | 500 to 2500 nM
Cn1nc(-c2cccc3oncc23)c(C(F)(F)F)c1C(=O)Nc1ccnc(C(F)(F)F)c1 [Compound I-246] | 2500 to 10000 nM
Cn1nc(-c2ccnc3nccn23)c(C(F)(F)F)c1C(=O)Nc1ccnc(C(F)(F)F)c1 [Compound I-247] | 500 to 2500 nM
Cn1nc(-c2ccc(Cl)c3nccn23)c(C(F)(F)F)c1C(=O)Nc1ccnc(C(F)(F)F)c1 [Compound I-248] | > 10000 nM
Cn1nc(-c2cccc3[nH]c(=O)ccc23)c(C(F)(F)F)c1C(=O)Nc1ccnc(C(F)(F)F)c1 [Compound I-249] | 2500 to 10000 nM
Cn1nc(-c2cccc3ncc(F)cc23)c(C(F)(F)F)c1C(=O)Nc1ccnc(C(F)(F)F)c1 [Compound I-250] | 500 to 2500 nM
Cn1nc(-c2c(F)ccc3nc(N)sc23)c(C(F)(F)F)c1C(=O)Nc1ccnc(C(F)(F)F)c1 [Compound I-251] | 500 to 2500 nM
Cn1nc2c(c1C(=O)Nc1ccnc(C(F)(F)F)c1)CCCc1ccccc1-2 [Compound I-252] | 2500 to 10000 nM
Cn1nc(C(=O)Nc2ccnc(C(F)(F)F)c2)c2c1-c1ccccc1CCC2 [Compound I-253] | > 10000 nM
Cn1nc2c(c1C(=O)Nc1cnc(-n3nccn3)c(Cl)c1)CCCc1ccccc1-2 [Compound I-254] | 500 to 2500 nM
Cn1nc(C(=O)Nc2cnc(-n3nccn3)c(Cl)c2)c2c1-c1ccccc1CCC2 [Compound I-255] | > 10000 nM

Structure (SMILES) | IC50
Cn1nc2c(c1C(=O)Nc1cnc(-n3nccn3)c(Cl)c1)CCOc1ccccc1-2 [Compound I-256] | > 10000 nM
Cn1nc2c(c1C(=O)Nc1ccnc(C(F)(F)F)c1)CCc1ccccc1-2 [Compound I-258] | 2500 to 10000 nM
Cn1nc2c(c1C(=O)Nc1cnc(-n3nccn3)c(Cl)c1)CCc1ccccc1-2 [Compound I-259] | > 10000 nM
Cn1nc(C(=O)Nc2ccnc(C(F)(F)F)c2)c2c1-c1ccccc1CC2 [Compound I-260] | 500 to 2500 nM
Cn1nc(-c2c(F)ccc3ncsc23)c(C(F)(F)F)c1C(=O)Nc1ccnc(C(F)(F)F)c1 [Compound I-280] | < 500 nM
CNc1nc2cccc(-c3nn(C)c(C(=O)Nc4ccnc(C(F)(F)F)c4)c3C(F)(F)F)c2s1 [Compound I-281] | 2500 to 10000 nM
Cn1nc(-c2cccc3ncsc23)c(C(F)(F)F)c1C(=O)Nc1ccnc(C2CC2)c1 [Compound I-282] | > 10000 nM
Cc1cn2c(-c3nn(C)c(C(=O)Nc4ccnc(C5CC5)c4)c3C(F)(F)F)cccc2n1 [Compound I-283] | > 10000 nM
Cn1nc(-c2cccc3nscc23)c(C(F)(F)F)c1C(=O)Nc1cnc(-n2nccn2)c(Cl)c1 [Compound I-285] | < 500 nM
Cn1nc(-c2cccc3ncsc23)c(C(F)(F)F)c1C(=O)Nc1cnc(-n2nccn2)c(C(F)F)c1 [Compound I-286] | < 500 nM
COc1cc(NC(=O)c2c(C(F)(F)F)c(-c3ccccc3)nn2C)ccn1 [Compound I-287] | > 10000 nM
Cc1cc(NC(=O)c2c(C(F)(F)F)c(-c3ccccc3)nn2C)cc(C)n1 [Compound I-288] | 2500 to 10000 nM
Cn1nc(-c2ccc(F)c3nccn23)c(C(F)(F)F)c1C(=O)Nc1ccnc(C(F)(F)F)c1 [Compound I-291] | 500 to 2500 nM
CN(C)c1nc2cccc(-c3nn(C)c(C(=O)Nc4ccnc(C(F)(F)F)c4)c3C(F)(F)F)c2s1 [Compound I-292] | > 10000 nM
COc1nc2cccc(-c3nn(C)c(C(=O)Nc4ccnc(C(F)(F)F)c4)c3C(F)(F)F)c2s1 [Compound I-293] | > 10000 nM
COc1nc2cccc(-c3nn(C)c(C(=O)Nc4cnc(-n5nccn5)c(Cl)c4)c3C(F)(F)F)c2s1 [Compound I-294] | < 500 nM
Cn1nc(-c2cncc3ncccc23)c(C(F)(F)F)c1C(=O)Nc1ccnc(C(F)(F)F)c1 [Compound I-295] | 2500 to 10000 nM
Cn1nc(-c2c(F)ccc3nccn23)c(C(F)(F)F)c1C(=O)Nc1ccnc(C(F)(F)F)c1 [Compound I-296] | 500 to 2500 nM
Cc1nc2cccc(-c3nn(C)c(C(=O)Nc4cnc(-n5nccn5)c(Cl)c4)c3C(F)(F)F)c2s1 [Compound I-297] | < 500 nM
Cc1nc2cccc(-c3nn(C)c(C(=O)Nc4ccnc(C5CC5)c4)c3C(F)(F)F)c2s1 [Compound I-298] | > 10000 nM
Cn1nc(-c2cccc3nc(N)sc23)c(C(F)(F)F)c1C(=O)Nc1cnc(-n2nccn2)c(Cl)c1 [Compound I-299, 3-(2-aminobenzo[d]thiazol-7-yl)-N-(5-chloro-6-(2H-1,2,3-triazol-2-yl)pyridin-3-yl)-1-methyl-4-(trifluoromethyl)-1H-pyrazole-5-carboxamide] | < 500 nM
